Assay results taken from patent US11168052B2, “Carbamate derivative compounds, processes for preparing them and their uses” (BIO-PHARM SOLUTIONS CO., LTD., priority 2016, dated 2021).

Columns and labels:
[1] = tested on: Picrotoxin (PIC)-induced clonic seizure in mice; experiment: Chemical induced seizure model (PIC); assay type: in vivo, ICR mice
Method: Picrotoxin (PIC) were used to induce the behavioral seizures in the experiments. Male ICR mice (purchased from Orient Bio Inc. Korea) of body weight 19-26 g (mice) were used for these studies. The test materials were administered intraperitoneal (ip) route in a volume of 10 ul/g (mice) weight in rats or mice, respectively. Pharmacological effects of the test materials were evaluated to compared test groups (n=6) with a control group (n=6). Control group was administrated vehicle, only. The peak time was determined by administration of test material's random dose for 0.5, 1, 2, 4 hour. The time that the most protect was defined as a peak time and ED50 was determined by other dose administration at the peak time. Chemical (PIC) was dissolved in 0.9% saline and administered subcutaneously (s.c.) at its CD97 (convulsive dose 97%), the dose of Chemical (PIC) that produced clonic seizures in 97% into a loose fold of skin in the midline of the neck in a volume of 10 ul/g (mice) body weight. The animals were then transferred to observation cages and observed continuously for 45 min. Clonic seizure was elicited in approximately 97% of control group. Protection was defined as a complete absence of clonic seizure over the 45-min observation period. The effective dose of compound necessary to protect against generalized convulsive seizures to 50% of controls (i.e., ED50) was determined by log probit analysis using SPSS software program (SPSS Inc.). (Reference; White H. S., J. H. Woodhead, K. S. Wilcox, J. P. Stables, H. J. Kupferberg, and H. H. Wolf. General Principles; Discovery and Preclinical Development of Antiepileptic Drugs. In: R. H. Levy, R. H. Mattson, B. S. Meldrum, and E. Perucca, eds. Antiepileptic Drugs, 5th Ed. Lippincott Williams & Wilkins, Philadelphia 2002: pp. 36-48.) The obtained results are shown in following Table 10.

[2] = tested on: PTZ (Pentylenetetrazol)-induced clonic seizure in mice; experiment: Anti-epilepsy activity, scPTZ test in mouse; assay type: in vivo, ICR mice; conditions: ip
Source text: In this experiment, each test compound sample was formulated as described in Biological Experimental Example 1, and administered intraperitoneally to the test animals (mice; ICR or Rat; SD); Experimental animals, male ICR mice and male SD rats, were purchased from OrientBio or Nara biotech, Korea, and housed 4-5 mice per a cage for 4-5 days. The range of mice body weight was used between 19 and 26 grams and range of rats body weight was used between 100 and 130 grams. After Peak time (0.5, 1, 2 and 4 hr) from the administration, PTZ (Pentylenetetrazol) was administered subcutaneously in the concentration capable of inducing 97% intermittent convulsions (mice: 100-110 mg/kg?bw, 10 μl/g, or rats: 90-110 mg/kg?bw, 2 μl/g). If clonic seizure was not observed for at least 30 minutes in the PTZ administered animal, it can be considered that the test compound has anti-epilepsy activity. The median effective dose (ED50) is determined using 6 animals per a concentration (total three different concentrations), and calculated by Litchfield and Wicoxon log-probit method which is a dose-response relationship.

corneally kindled rats = experiment: Corneal kindling (CK) rat model; assay type: in vivo, Sprague-Dawley rats; conditions: po
Source text: Male Sprague-Dawley rats (purchased from Orient Bio Inc. Korea) of body weight 85-100 g were used for these studies. The MES test using the electroshock seizure apparatus designed by Rodent Shocker Type221 (Hugo Sachs Elektronik, Germany). The kindled rat models were electrically stimulated (8 mA, 60 Hz, 2 s, corneal electrodes) twice daily for 21 days until stage 5 seizure scored by Racine's scale (Racine, 1972) were evoked. The kindled rats were fasted and adapted to test condition, for at least 1 hour before the administration of test material. The drugs were administered orally (p.o.) in a volume of 4 μl/g body weight. The corneally kindled rat model test is a model for generalized […] seizures or bipolar disorder and identifies the compound which prevents seizure or bipolar disorder spread. The shock level was set at 8 mA, 60 Hz and the duration was set at 2 s. A drop of 0.9% saline was placed in each eye, the electrodes were placed over the eyes, and the shock was administered immediately. Pharmacological effects of the test materials were evaluated to compare the test groups (n=6) with a control group (n=6). Control group was administrated vehicle, only. The peak time was determined by administration test material's random dose for 0.5, 1, 2, 4 hour. The time that the most protect was defined peak time and ED50 was determined by other dose administration at peak time. […]

SMILES | PIC(ip) efficacy % ([1]; mice, dose 120 mg/kg) | ED50 [2] [mg/kg] | ED50 ([1]; Mus musculus, ip, read-out: PIC(ip) ED50) [mg/kg] | ED50 (corneally kindled rats) [mg/kg]
NC(=O)O[C@@H]1c2c(Cl)cccc2CC[C@@H]1O [Example 19, (1R, 2S)-8-chloro-2-hydroxy-1,2,3,4-tetrahydronaphthalen-1-yl carbamate] | 120 (16.6%) |  |  | 
NC(=O)O[C@@H]1CCc2cccc(Cl)c2[C@@H]1O [Example 1, (1S, 2R)-8-chloro-1-hydroxy-1,2,3,4-tetrahydronaphthalen-2-yl carbamate] |  | 12.5 | 23.7 | 7.5
